Reference: patent US8722670B2, “Selective NR2B antagonists” (Bristol-Myers Squibb Company, priority 2011, dated 2014)
pIC50: −log10 of the molar value.

molecular target: T1, hNR2B (Homo sapiens, UniProt Q05586+Q13224); assay: Electrophysiology NMDA receptor experiments: two electrode voltage-clamp in Xenopus laevis oocytes, hNR2B IC50; format: cell-based; details: Activity, hNR2B activity class, 50 μM glutamate, 30 μM glycine
T1 construct: expressed in transfected cells; host or cells: Xenopus laevis oocytes, cRNA-injected
T1 sequence (Q13224 27-1484, other chains not shown): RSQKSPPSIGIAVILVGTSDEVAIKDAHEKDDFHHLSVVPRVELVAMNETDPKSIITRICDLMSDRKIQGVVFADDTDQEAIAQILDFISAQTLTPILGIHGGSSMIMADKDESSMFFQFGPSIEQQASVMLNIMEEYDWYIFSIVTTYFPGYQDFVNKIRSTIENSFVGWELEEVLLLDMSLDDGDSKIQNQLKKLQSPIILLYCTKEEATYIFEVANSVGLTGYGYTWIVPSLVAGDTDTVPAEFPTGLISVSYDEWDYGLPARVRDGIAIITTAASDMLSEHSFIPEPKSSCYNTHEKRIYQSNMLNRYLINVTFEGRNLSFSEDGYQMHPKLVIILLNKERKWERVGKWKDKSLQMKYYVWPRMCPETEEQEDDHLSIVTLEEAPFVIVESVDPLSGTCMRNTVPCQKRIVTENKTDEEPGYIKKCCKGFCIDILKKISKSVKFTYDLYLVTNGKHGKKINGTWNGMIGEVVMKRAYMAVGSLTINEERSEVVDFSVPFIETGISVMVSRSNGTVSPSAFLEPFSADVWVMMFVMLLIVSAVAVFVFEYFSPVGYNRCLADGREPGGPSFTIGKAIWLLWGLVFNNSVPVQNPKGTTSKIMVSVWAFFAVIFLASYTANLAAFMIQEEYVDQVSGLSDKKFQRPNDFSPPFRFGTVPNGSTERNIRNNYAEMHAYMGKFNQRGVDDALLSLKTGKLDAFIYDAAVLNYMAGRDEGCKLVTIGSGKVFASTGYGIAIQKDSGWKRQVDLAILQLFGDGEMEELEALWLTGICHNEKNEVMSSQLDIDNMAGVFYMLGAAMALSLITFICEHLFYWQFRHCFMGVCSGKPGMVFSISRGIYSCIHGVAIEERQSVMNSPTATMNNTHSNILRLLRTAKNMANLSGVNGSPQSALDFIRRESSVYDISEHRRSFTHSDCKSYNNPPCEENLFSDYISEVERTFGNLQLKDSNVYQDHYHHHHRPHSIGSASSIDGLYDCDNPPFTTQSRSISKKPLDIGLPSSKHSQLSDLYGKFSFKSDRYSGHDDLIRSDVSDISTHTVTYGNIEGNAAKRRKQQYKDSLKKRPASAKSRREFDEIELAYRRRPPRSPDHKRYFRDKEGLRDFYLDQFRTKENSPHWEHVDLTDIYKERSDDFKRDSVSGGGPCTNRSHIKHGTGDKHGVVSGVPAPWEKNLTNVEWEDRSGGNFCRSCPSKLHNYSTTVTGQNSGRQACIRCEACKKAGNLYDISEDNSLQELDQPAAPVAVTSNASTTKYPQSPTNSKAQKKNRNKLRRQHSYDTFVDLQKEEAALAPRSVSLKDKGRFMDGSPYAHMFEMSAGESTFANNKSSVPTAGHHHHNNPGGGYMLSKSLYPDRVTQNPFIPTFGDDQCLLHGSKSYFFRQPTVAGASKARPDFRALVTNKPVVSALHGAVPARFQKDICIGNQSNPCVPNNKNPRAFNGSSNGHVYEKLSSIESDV
Protocol: Stage V and VI oocytes were surgically removed from the ovaries of large, well-fed and healthy Xenopus laevis anesthetized with 3-amino-benzoic acid ethyl ester (3 gm/l). […] Oocytes were then washed in the same solution supplemented with 1.8 mM CaCl2 and maintained in Barth's solution comprised of (in mM): 88 NaCl, 1 KCl, 2.4 NaHCO3, 10 HEPES, 0.82 MgSO4, 0.33 Ca(NO3)2, and 0.91 CaCl2 and supplemented with 100 μg/ml gentamycin, 10 μg/ml streptomycin, and 10 μg/ml penicillin.
Two electrode voltage-clamp recordings were made 2-7 days post-injection. Oocytes were placed in a dual-track plexiglass recording chamber with a single perfusion line that splits in a Y-configuration to perfuse two oocytes. Dual recordings were made at room temperature (23° C.) using two Warner OC725B two-electrode voltage clamp amplifiers, arranged as recommended by the manufacturer. Glass microelectrodes (1-10 Megaohms) were filled with 300 mM KCl (voltage electrode) or 3 M KCl (current electrode). The bath clamps communicated across silver chloride wires placed into each side of the recording chamber, both of which were assumed to be at a reference potential of 0 mV. Oocytes were perfused with a solution comprised of (in mM) 90 NaCl, 1 KCl, 10 HEPES, 10 EDTA and 0.5 BaCl2; pH 7.4, adjusted by addition of NaOH. Oocytes were recorded under voltage clamp at −40 mV. Final concentrations for glutamate and glycine were 50 μM and 30 μM, respectively. […] Dose response curves consisting of four to eight concentrations were obtained in this manner. The baseline leak current at −40 mV was measured before and after recording, and the full recording linearly corrected for any change in leak current. The level of inhibition by applied experimental compounds was expressed as a percent of the initial glutamate response, and averaged together across oocytes from multiple experiments.
For NMDA receptor subtype selectivity experiments human GluN1/GluN2A, GluN1/GluN2C, and GluN1/GluN2D cRNAs were expressed in Xenopus laevis as described above. Here, 10 μM concentrations of the antagonist was perfused with 50 μM glutamate and 30 μM glycine onto the oocyte for two min and the remaining current in the presence of the antagonist was compared to the maximal current obtained with 50 μM glutamate and 30 μM glycine alone (defined as 100%). When IC50 determinations were made against other NMDA receptor subtypes the protocol as described above was followed.

Row | Structure (SMILES) | pIC50
1 | O=c1ccc2cc(OCc3nnc(NCc4ccc(Cl)nc4)o3)ccc2[nH]1 [Example 24] | 5.00 to 6.00

same assay, conditions: hNR2B IC50 (nM), voltage clamp -40 mV, 50 μM glutamate, 30 μM glycine

Row | Structure (SMILES) | IC50 [nM]
2 | O=c1ccc2cc(OCc3nnc(NCc4ccc(Cl)nc4)o3)ccc2[nH]1 [Example 24] | 7240

same assay, conditions: hNR2B activity class, 50 μM glutamate, 30 μM glycine, read-out: Activity

Row | Structure (SMILES) | pIC50
3 | CC(Oc1ccc2[nH]c(=O)ccc2c1)c1nnc(Nc2ccc(Cl)c(Cl)c2)o1 (single isomer, unassigned) [Example 109] | > 6.70
4 | O=C1Cc2cc(OCc3nnc(Nc4ccc(Cl)c(Cl)c4)o3)ccc2N1 [Example 8] | > 6.70
5 | O=C1Cc2cc(OCc3nnc(NCc4ccc(Cl)c(Cl)c4)o3)ccc2N1 [Example 9] | > 6.70
6 | O=c1ccc2cc(OCc3nnc(Nc4ccc(Cl)c(Cl)c4)o3)ccc2[nH]1 [Example 10] | > 6.70
7 | O=c1ccc2cc(OCc3nnc(Nc4ccc(Cl)cc4)o3)ccc2[nH]1 [Example 12] | > 6.70
8 | O=c1ccc2cc(OCc3nnc(Nc4ccc(OC(F)(F)F)cc4)o3)ccc2[nH]1 [Example 13] | > 6.70
9 | O=C1CCc2cc(OCc3nnc(Nc4ccc(OC(F)(F)F)cc4)o3)ccc2N1 [Example 14] | 6.00 to 6.70
10 | O=C1CCc2cc(OCc3nnc(Nc4ccc(Cl)cn4)o3)ccc2N1 [Example 15] | < 5.00
11 | O=C1CCc2cc(OCc3nnc(Nc4ccc(OC(F)F)cc4)o3)ccc2N1 [Example 16] | 6.00 to 6.70
12 | CCOC(=O)Cc1ccc(Nc2nnc(COc3ccc4c(c3)CCC(=O)N4)o2)cc1 [Example 18] | < 5.00
13 | O=C1CCc2cc(OCc3nnc(NCc4ccc(Cl)c(Cl)c4)o3)ccc2N1 [Example 21] | > 6.70
14 | O=c1ccc2cc(OCc3nnc(NCc4ccc(Cl)c(Cl)c4)o3)ccc2[nH]1 [Example 22] | > 6.70
15 | O=C1CCc2cc(OCc3nnc(NCc4ccc(OC(F)(F)F)cc4)o3)ccc2N1 [Example 23] | > 6.70
16 | O=C1CCc2cc(OCc3nnc(NCc4ccc(Cl)nc4)o3)ccc2N1 [Example 25] | < 5.00
17 | O=c1ccc2cc(OCc3nnc(NCc4ccc(OC(F)(F)F)cc4)o3)ccc2[nH]1 [Example 26] | > 6.70
18 | O=c1ccc2cc(OCc3nnc(NCc4ccc(OC(F)F)cc4)o3)ccc2[nH]1 [Example 27] | > 6.70
19 | O=C1CCc2cc(OCc3nnc(NCc4ccc(OC(F)F)cc4)o3)ccc2N1 [Example 28] | > 6.70
20 | CS(=O)(=O)Nc1ccc(OCc2nnc(Nc3ccc(Cl)c(Cl)c3)o2)cc1 [Example 29] | > 6.70
21 | CCOC(=O)Nc1ccc(OCc2nnc(Nc3ccc(Cl)c(Cl)c3)o2)cc1 [Example 31] | < 5.00
22 | O=c1ccc2cc(OCc3nnc(Nc4ccccc4F)o3)ccc2[nH]1 [Example 33] | < 5.00
23 | O=c1ccc2cc(OCc3nnc(Nc4ccccc4)o3)ccc2[nH]1 [Example 34] | 5.00 to 6.00
24 | O=c1ccc2cc(OCc3nnc(Nc4cccc(F)c4)o3)ccc2[nH]1 [Example 39] | 5.00 to 6.00

Row | Structure (SMILES) | pIC50
25 | O=c1ccc2cc(OCc3nnc(Nc4ccc(F)cc4)o3)ccc2[nH]1 [Example 40] | 5.00 to 6.00
26 | O=c1ccc2cc(OCc3nnc(Nc4ccccc4Cl)o3)ccc2[nH]1 [Example 41] | < 5.00
27 | O=c1ccc2cc(OCc3nnc(Nc4cccc(C(F)(F)F)c4)o3)ccc2[nH]1 [Example 42] | 6.00 to 6.70
28 | Cc1ccc(Nc2nnc(COc3ccc4[nH]c(=O)ccc4c3)o2)cc1 [Example 45] | 6.00 to 6.70
29 | Cc1cccc(Nc2nnc(COc3ccc4[nH]c(=O)ccc4c3)o2)c1 [Example 46] | 5.00 to 6.00
30 | Clc1ccc(Nc2nnc(COc3ccc4[nH]ncc4c3)o2)cc1Cl [Example 50] | > 6.70
31 | O=c1ccc2cc(OCc3nnc(Nc4ccc(Cl)c(C(F)(F)F)c4)o3)ccc2[nH]1 [Example 51] | > 6.70
32 | CC(C)c1ccc(Nc2nnc(COc3ccc4[nH]c(=O)ccc4c3)o2)cc1 [Example 52] | > 6.70
33 | O=c1ccc2cc(OCc3nnc(Nc4ccccc4C(F)(F)F)o3)ccc2[nH]1 [Example 54] | < 5.00
34 | O=c1ccc2cc(OCc3nnc(Nc4ccc(Cl)cc4Cl)o3)ccc2[nH]1 [Example 56] | < 5.00
35 | O=c1ccc2cc(OCc3nnc(Nc4cc(Cl)ccc4Cl)o3)ccc2[nH]1 [Example 57] | < 5.00
36 | O=c1ccc2cc(OCc3nnc(Nc4cccc(Cl)c4Cl)o3)ccc2[nH]1 [Example 59] | > 6.70
37 | O=c1ccc2cc(OCc3nnc(NCc4ccccc4Cl)o3)ccc2[nH]1 [Example 63] | 5.00 to 6.00
38 | O=c1ccc2cc(OCc3nnc(Nc4c(Cl)cccc4Cl)o3)ccc2[nH]1 [Example 66] | < 5.00
39 | O=c1ccc2cc(OCc3nnc(NCc4ccc(Cl)cc4F)o3)ccc2[nH]1 [Example 67] | 6.00 to 6.70
40 | O=c1ccc2cc(OCc3nnc(NCc4cccc(F)c4)o3)ccc2[nH]1 [Example 68] | 6.00 to 6.70
41 | O=c1ccc2cc(OCc3nnc(NCc4c(Cl)cccc4Cl)o3)ccc2[nH]1 [Example 70] | 5.00 to 6.00
42 | O=c1ccc2cc(OCc3nnc(Nc4ccc(C(F)(F)F)c(Cl)c4)o3)ccc2[nH]1 [Example 73] | > 6.70
43 | O=c1ccc2cc(OCc3nnc(Nc4ccc(OC(F)(F)F)c(Cl)c4)o3)ccc2[nH]1 [Example 74] | > 6.70
44 | O=c1ccc2cc(OCc3nnc(NCc4ccccc4C(F)(F)F)o3)ccc2[nH]1 [Example 75] | 5.00 to 6.00
45 | O=c1ccc2cc(OCc3nnc(NCc4ccc(C(F)(F)F)cc4)o3)ccc2[nH]1 [Example 76] | > 6.70
46 | O=c1ccc2cc(OCc3nnc(NCc4cccc(Cl)c4)o3)ccc2[nH]1 [Example 77] | 6.00 to 6.70

Row | Structure (SMILES) | pIC50
47 | CC1(C)Cc2cc(OCc3nnc(Nc4ccc(Cl)c(Cl)c4)o3)ccc2NC1=O [Example 80] | 5.00 to 6.00
48 | CC1(C)Cc2cc(OCc3nnc(Nc4ccc(Cl)c(F)c4)o3)ccc2NC1=O [Example 83] | 5.00 to 6.00
49 | CC1(C)Cc2cc(OCc3nnc(NCc4ccc(Cl)c(Cl)c4)o3)ccc2NC1=O [Example 84] | < 5.00
50 | O=c1ccc2cc(OCc3nnc(NCc4ccc5c(c4)OCO5)o3)ccc2[nH]1 [Example 85] | 5.00 to 6.00
51 | Cc1cc(CNc2nnc(COc3ccc4[nH]c(=O)ccc4c3)o2)ccc1F [Example 86] | 6.00 to 6.70
52 | O=c1ccc2cc(OCc3nnc(Nc4ccc(OC(F)F)c(Cl)c4)o3)ccc2[nH]1 [Example 87] | > 6.70
53 | O=c1ccc2cc(OCc3nnc(Nc4ccc(Cl)c(OC(F)F)c4)o3)ccc2[nH]1 [Example 88] | > 6.70
54 | O=c1ccc2cc(OCc3nnc(Nc4cccc(Oc5ccccc5)c4)o3)ccc2[nH]1 [Example 89] | 6.00 to 6.70
55 | Cc1cc(Nc2nnc(COc3ccc4[nH]c(=O)ccc4c3)o2)ccc1F [Example 90] | 6.00 to 6.70
56 | O=c1ccc2cc(OCc3nnc(Nc4ccc(Oc5ccccc5)cc4)o3)ccc2[nH]1 [Example 91] | 5.00 to 6.00
57 | Cc1ccc(Nc2nnc(COc3ccc4[nH]c(=O)ccc4c3)o2)cc1Cl [Example 92] | > 6.70
58 | Cc1cccc(CNc2nnc(COc3ccc4[nH]c(=O)ccc4c3)o2)c1 [Example 94] | 6.00 to 6.70
59 | O=c1ccc2cc(OCc3nnc(Nc4ccc(F)c(Cl)c4)o3)ccc2[nH]1 [Example 96] | 6.00 to 6.70
60 | O=c1ccc2cc(OCc3nnc(Nc4ccc(F)c(C(F)F)c4)o3)ccc2[nH]1 [Example 99] | 6.00 to 6.70
61 | O=c1ccc2cc(OCc3nnc(NCc4ccccc4F)o3)ccc2[nH]1 [Example 100] | 5.00 to 6.00
62 | Cc1ccc(Nc2nnc(COc3ccc4[nH]c(=O)ccc4c3)o2)cc1F [Example 102] | > 6.70
63 | COc1ccc(Nc2nnc(COc3ccc4[nH]c(=O)ccc4c3)o2)cc1F [Example 103] | 6.00 to 6.70
64 | CC(Oc1ccc2[nH]c(=O)ccc2c1)c1nnc(Nc2ccc(Cl)c(Cl)c2)o1 (centres unmarked) [Example 106] | > 6.70
65 | CC(Oc1ccc2[nH]c(=O)ccc2c1)c1nnc(Nc2ccc(OC(F)F)c(Cl)c2)o1 (centres unmarked) [Example 108] | > 6.70
66 | O=C1Nc2ccc(OCc3nnc(Nc4ccc(Cl)c(Cl)c4)o3)cc2CO1 [Example 111] | > 6.70
67 | O=c1[nH]c2ccc(OCc3nnc(NCc4ccc(Cl)c(Cl)c4)o3)cc2[nH]1 [Example 112] | > 6.70
68 | O=c1[nH]c2ccc(OCc3nnc(Nc4ccc(Cl)c(Cl)c4)o3)cc2[nH]1 [Example 113] | > 6.70

same assay, conditions: voltage clamp -40 mV, 50 μM glutamate, 30 μM glycine, read-out: hNR2B IC50

Row | Structure (SMILES) | pIC50
69 | O=C1CCc2cc(OCc3nnc(Nc4ccc(Cl)cc4)o3)ccc2N1 [Example 1, 6-((5-(4-chlorophenylamino)-1,3,4-oxadiazol-2-yl)methoxy)-3,4-dihydroquinolin-2(1H)-one] | 6.15
70 | O=c1ccc2cc(OCc3nnc(-c4ccc(Cl)c(Cl)c4)o3)ccc2[nH]1 [Example 2, 6-((5-(3,4-dichlorophenyl)-1,3,4-oxadiazol-2-yl)methoxy)quinolin-2(1H)-one] | < 5.00
71 | CC(C)OC(=O)Nc1ccc(OCc2nnc(Nc3ccc(Cl)c(Cl)c3)o2)cc1 [Example 3, Isopropyl 4-((5-(3,4-dichlorophenylamino)-1,3,4-oxadiazol-2-yl)methoxy)phenyl carbamate] | 5.14
72 | O=C1CCc2cc(OCc3nnc(Nc4ccc(Br)cc4)o3)ccc2N1 [Example 4] | 6.58
73 | O=C1CCc2cc(OCc3nnc(Nc4ccc(Cl)c(Cl)c4)o3)ccc2N1 [Example 5] | 7.24
74 | O=c1ccc2cc(OCc3nnc(Nc4ccc(C(F)(F)F)cc4)o3)ccc2[nH]1 [Example 11] | 7.26
75 | O=c1ccc2cc(OCc3nnc(Nc4ccc(OC(F)F)cc4)o3)ccc2[nH]1 [Example 17] | 7.10
76 | O=C1CCc2cc(OCc3nnc(NCc4ccc(Cl)cc4)o3)ccc2N1 [Example 20] | 6.32
77 | CS(=O)(=O)Nc1ccc(OCc2nnc(NCc3ccc(Cl)c(Cl)c3)o2)cc1 [Example 30] | 7.72
78 | CCOC(=O)Nc1ccc(OCc2nnc(NCc3ccc(Cl)c(Cl)c3)o2)cc1 [Example 32] | 5.67
79 | O=c1ccc2cc(OCc3nnc(Nc4ccc(Cl)cc4F)o3)ccc2[nH]1 [Example 35] | 6.05
80 | O=c1ccc2cc(OCc3nnc(Nc4ccc(Cl)c(F)c4)o3)ccc2[nH]1 [Example 49] | 7.74
81 | O=c1ccc2cc(OCc3nnc(Nc4cc(Cl)cc(Cl)c4)o3)ccc2[nH]1 [Example 53] | 5.39
82 | O=c1ccc2cc(OCc3nnc(Nc4ccc(Cl)c(OC(F)(F)F)c4)o3)ccc2[nH]1 [Example 55] | 6.27
83 | O=c1ccc2cc(OCc3nnc(Nc4cccc(Cl)c4)o3)ccc2[nH]1 [Example 58] | 6.08
